Data taken from PMC9856672, “SGC-CAMKK2-1: A Chemical Probe for CAMKK2” (Cells, 2023).

How the values were obtained:
[1] = molecular target: T1, PRKG2 (Homo sapiens, UniProt Q13237); experiment: KINOMEscan 1 μM, PRKG2; format: binding; conditions: 1000 nM; Entrez PRKG2; read-out: Percent Control
T1 construct: purchased Eurofins DiscoverX KINOMEscan
Source text: (§1) Supplement cells-12-00287-s001.zip/File S2. KinomeScan data for the CAMKK2 probe and negative control.xlsx, sheet "SGC-CAMKK2-1" | column: Percent Control

[2] = molecular target: T2, PIK3CA(C420R) (Homo sapiens, UniProt P42336, C420R); experiment: DiscoverX KINOMEscan binding assay at 1 μM, PIK3CA(C420R); conditions: Compound Concentration 1000 nM, read-out: Percent Control
T2 construct: purchased Eurofins DiscoverX KINOMEscan
Source text: as §1

[3] = molecular target: T3, LCK (Homo sapiens, UniProt P06239); experiment: KINOMEscan 1 μM, LCK; format: binding; conditions: 1000 nM; Entrez LCK; read-out: Percent Control
T3 construct: purchased Eurofins DiscoverX KINOMEscan
Source text: as §1

[4] = molecular target: T4, NEK9 (Homo sapiens, UniProt Q8TD19); experiment: KINOMEscan 1 μM, NEK9; format: binding; conditions: 1000 nM; Entrez NEK9; read-out: Percent Control
T4 construct: purchased Eurofins DiscoverX KINOMEscan
Source text: as §1

[5] = molecular target: T5, PRKCI (Homo sapiens, UniProt P41743); experiment: DiscoverX KINOMEscan binding assay at 1 μM, PRKCI; conditions: Compound Concentration 1000 nM, read-out: Percent Control
T5 construct: purchased Eurofins DiscoverX KINOMEscan
Source text: as §1

[6] = molecular target: T6, PKAC-alpha (Homo sapiens, UniProt P17612); experiment: DiscoverX KINOMEscan binding assay at 1 μM, PKAC-alpha; conditions: PKAC-alpha (PRKACA); Compound Concentration 1000 nM; read-out: Percent Control
T6 construct: purchased Eurofins DiscoverX KINOMEscan
Source text: as §1

[7] = molecular target: T7, CDKL2 (Homo sapiens, UniProt Q92772); experiment: KINOMEscan 1 μM, CDKL2; format: binding; conditions: 1000 nM; Entrez CDKL2; read-out: Percent Control
T7 construct: purchased Eurofins DiscoverX KINOMEscan
Source text: as §1

[8] = molecular target: T8, ERN1 (Homo sapiens, UniProt O75460); experiment: KINOMEscan 1 μM, ERN1; format: binding; conditions: 1000 nM; Entrez ERN1; read-out: Percent Control
T8 construct: purchased Eurofins DiscoverX KINOMEscan
Source text: as §1

[9] = molecular target: T9, IKK-beta (Homo sapiens, UniProt O14920); experiment: KINOMEscan 1 μM, IKK-beta; format: binding; conditions: 1000 nM; Entrez IKBKB; read-out: Percent Control
T9 construct: purchased Eurofins DiscoverX KINOMEscan
Source text: as §1

[10] = molecular target: T10, TAK1 (Homo sapiens, UniProt O43318); experiment: KINOMEscan 1 μM, TAK1; format: binding; conditions: 1000 nM; Entrez MAP3K7; read-out: Percent Control
T10 construct: purchased Eurofins DiscoverX KINOMEscan
Source text: as §1

[11] = molecular target: T11, KIT (Homo sapiens, UniProt P10721); experiment: KINOMEscan 1 μM, KIT; format: binding; conditions: 1000 nM; Entrez KIT; read-out: Percent Control
T11 construct: purchased Eurofins DiscoverX KINOMEscan
Source text: as §1

[12] = molecular target: T12, SGK (Homo sapiens, UniProt O00141); experiment: KINOMEscan 1 μM, SGK; format: binding; conditions: 1000 nM; Entrez SGK1; read-out: Percent Control
T12 construct: purchased Eurofins DiscoverX KINOMEscan
Source text: as §1

[13] = molecular target: T13, FLT3(D835V) (Homo sapiens, UniProt P36888, D835V); experiment: KINOMEscan 1 μM, FLT3(D835V); format: binding; conditions: 1000 nM; Entrez FLT3; read-out: Percent Control
T13 construct: purchased Eurofins DiscoverX KINOMEscan
Source text: as §1

[14] = molecular target: T14, BRAF(V600E) (Homo sapiens, UniProt P15056, V600E); experiment: KINOMEscan 1 μM, BRAF(V600E); format: binding; conditions: 1000 nM; Entrez BRAF; read-out: Percent Control
T14 construct: purchased Eurofins DiscoverX KINOMEscan
Source text: as §1

[15] = molecular target: T15, PIK3CA(E542K) (Homo sapiens, UniProt P42336, E542K); experiment: DiscoverX KINOMEscan binding assay at 1 μM, PIK3CA(E542K); conditions: Compound Concentration 1000 nM, read-out: Percent Control
T15 construct: purchased Eurofins DiscoverX KINOMEscan
Source text: as §1

[16] = system: FLT3(ITD,D835V); experiment: KINOMEscan 1 μM, FLT3(ITD,D835V); format: binding, human; conditions: 1000 nM; Entrez FLT3
Source text: as §1

[17] = molecular target: T16, CAMK2G (Homo sapiens, UniProt Q13555); experiment: KINOMEscan 1 μM, CAMK2G; format: binding; conditions: 1000 nM; Entrez CAMK2G; read-out: Percent Control
T16 construct: purchased Eurofins DiscoverX KINOMEscan
Source text: as §1

[18] = molecular target: T17, KIT(V559D,T670I) (Homo sapiens, UniProt P10721, T670I/V559D); experiment: KINOMEscan binding assay at 1 μM, KIT(V559D,T670I); conditions: Compound Concentration 1000 nM; read-out: Percent Control
T17 construct: purchased Eurofins DiscoverX KINOMEscan
Source text: (§2) Supplement cells-12-00287-s001.zip/File S2. KinomeScan data for the CAMKK2 probe and negative control.xlsx, sheet "SGC-CAMKK2-1N" | column: Percent Control

[19] = molecular target: T18, MAP3K3 (Homo sapiens, UniProt Q99759); experiment: KINOMEscan at 1 μM, MAP3K3; format: binding; conditions: 1000 nM, read-out: Percent Control
T18 construct: purchased Eurofins DiscoverX KINOMEscan
Source text: as §2

[20] = molecular target: T19, PHKG2 (Homo sapiens, UniProt P15735); experiment: KINOMEscan at 1 μM, PHKG2; format: binding; conditions: 1000 nM, read-out: Percent Control
T19 construct: purchased Eurofins DiscoverX KINOMEscan
Source text: as §2

[21] = molecular target: T20, LOK (Homo sapiens, UniProt O94804); experiment: KINOMEscan binding assay at 1 μM, LOK; conditions: Compound Concentration 1000 nM; read-out: Percent Control
T20 construct: purchased Eurofins DiscoverX KINOMEscan
Source text: as §2

[22] = molecular target: T21, RIPK4 (Homo sapiens, UniProt P57078); experiment: KINOMEscan at 1 μM, RIPK4; format: binding; conditions: 1000 nM, read-out: Percent Control
T21 construct: purchased Eurofins DiscoverX KINOMEscan
Source text: as §2

[23] = molecular target: T22, CAMK1B (Homo sapiens, UniProt Q6P2M8); experiment: KINOMEscan at 1 μM, CAMK1B; format: binding; conditions: 1000 nM, read-out: Percent Control
T22 construct: purchased Eurofins DiscoverX KINOMEscan
Source text: as §2

[24] = molecular target: T16, CAMK2G; experiment: KINOMEscan at 1 μM, CAMK2G; format: binding; conditions: 1000 nM, read-out: Percent Control
Source text: as §2

[25] = molecular target: T23, NEK11 (Homo sapiens, UniProt Q8NG66); experiment: KINOMEscan at 1 μM, NEK11; format: binding; conditions: 1000 nM, read-out: Percent Control
T23 construct: purchased Eurofins DiscoverX KINOMEscan
Source text: as §2

[26] = molecular target: T24, TAOK3 (Homo sapiens, UniProt Q9H2K8); experiment: KINOMEscan at 1 μM, TAOK3; format: binding; conditions: 1000 nM, read-out: Percent Control
T24 construct: purchased Eurofins DiscoverX KINOMEscan
Source text: as §2

[27] = molecular target: T25, JNK2 (Homo sapiens, UniProt P45984); experiment: KINOMEscan at 1 μM, JNK2; format: binding; conditions: 1000 nM, read-out: Percent Control
T25 construct: purchased Eurofins DiscoverX KINOMEscan
Source text: as §2

[28] = molecular target: T26, RPS6KA5(Kin.Dom.1-N-terminal) (Homo sapiens, UniProt O75582); experiment: KINOMEscan binding assay at 1 μM, RPS6KA5(Kin.Dom.1-N-terminal); conditions: Compound Concentration 1000 nM; read-out: Percent Control
T26 construct: RPS6KA5(Kin.Dom.1-N-terminal); purchased Eurofins DiscoverX KINOMEscan
Source text: as §2

[29] = molecular target: T27, PDGFRA (Homo sapiens, UniProt P16234); experiment: KINOMEscan at 1 μM, PDGFRA; format: binding; conditions: 1000 nM, read-out: Percent Control
T27 construct: purchased Eurofins DiscoverX KINOMEscan
Source text: as §2

[30] = molecular target: T28, ABL1(F317L)-nonphosphorylated (Homo sapiens, UniProt P00519, F317L); experiment: KINOMEscan at 1 μM, ABL1(F317L)-nonphosphorylated; format: binding; conditions: 1000 nM, read-out: Percent Control
T28 construct: purchased Eurofins DiscoverX KINOMEscan
Source text: as §2

[31] = molecular target: T29, ULK3 (Homo sapiens, UniProt Q6PHR2); experiment: KINOMEscan at 1 μM, ULK3; format: binding; conditions: 1000 nM, read-out: Percent Control
T29 construct: purchased Eurofins DiscoverX KINOMEscan
Source text: as §2

[32] = molecular target: T30, LZK (Homo sapiens, UniProt O43283); experiment: KINOMEscan at 1 μM, LZK; format: binding; conditions: 1000 nM, read-out: Percent Control
T30 construct: purchased Eurofins DiscoverX KINOMEscan
Source text: as §2

[33] = molecular target: T31, CSNK2A2 (Homo sapiens, UniProt P19784); experiment: KINOMEscan at 1 μM, CSNK2A2; format: binding; conditions: 1000 nM, read-out: Percent Control
T31 construct: purchased Eurofins DiscoverX KINOMEscan
Source text: as §2

T16 sequence (Q13555 whole entry): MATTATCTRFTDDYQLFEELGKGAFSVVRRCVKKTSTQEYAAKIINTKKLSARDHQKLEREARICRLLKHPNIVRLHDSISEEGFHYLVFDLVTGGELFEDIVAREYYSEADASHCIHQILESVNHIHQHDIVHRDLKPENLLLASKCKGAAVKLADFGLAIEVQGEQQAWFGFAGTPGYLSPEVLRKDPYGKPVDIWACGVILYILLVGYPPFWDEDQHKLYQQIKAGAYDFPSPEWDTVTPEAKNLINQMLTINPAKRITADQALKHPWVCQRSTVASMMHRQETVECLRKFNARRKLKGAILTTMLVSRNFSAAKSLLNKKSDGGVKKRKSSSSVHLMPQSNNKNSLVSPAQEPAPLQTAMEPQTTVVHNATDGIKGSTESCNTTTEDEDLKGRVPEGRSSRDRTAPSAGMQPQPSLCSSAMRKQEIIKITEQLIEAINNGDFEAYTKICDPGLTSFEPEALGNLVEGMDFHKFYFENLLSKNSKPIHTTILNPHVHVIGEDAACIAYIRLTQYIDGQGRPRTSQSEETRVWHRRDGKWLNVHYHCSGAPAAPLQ
T20 sequence (O94804 whole entry): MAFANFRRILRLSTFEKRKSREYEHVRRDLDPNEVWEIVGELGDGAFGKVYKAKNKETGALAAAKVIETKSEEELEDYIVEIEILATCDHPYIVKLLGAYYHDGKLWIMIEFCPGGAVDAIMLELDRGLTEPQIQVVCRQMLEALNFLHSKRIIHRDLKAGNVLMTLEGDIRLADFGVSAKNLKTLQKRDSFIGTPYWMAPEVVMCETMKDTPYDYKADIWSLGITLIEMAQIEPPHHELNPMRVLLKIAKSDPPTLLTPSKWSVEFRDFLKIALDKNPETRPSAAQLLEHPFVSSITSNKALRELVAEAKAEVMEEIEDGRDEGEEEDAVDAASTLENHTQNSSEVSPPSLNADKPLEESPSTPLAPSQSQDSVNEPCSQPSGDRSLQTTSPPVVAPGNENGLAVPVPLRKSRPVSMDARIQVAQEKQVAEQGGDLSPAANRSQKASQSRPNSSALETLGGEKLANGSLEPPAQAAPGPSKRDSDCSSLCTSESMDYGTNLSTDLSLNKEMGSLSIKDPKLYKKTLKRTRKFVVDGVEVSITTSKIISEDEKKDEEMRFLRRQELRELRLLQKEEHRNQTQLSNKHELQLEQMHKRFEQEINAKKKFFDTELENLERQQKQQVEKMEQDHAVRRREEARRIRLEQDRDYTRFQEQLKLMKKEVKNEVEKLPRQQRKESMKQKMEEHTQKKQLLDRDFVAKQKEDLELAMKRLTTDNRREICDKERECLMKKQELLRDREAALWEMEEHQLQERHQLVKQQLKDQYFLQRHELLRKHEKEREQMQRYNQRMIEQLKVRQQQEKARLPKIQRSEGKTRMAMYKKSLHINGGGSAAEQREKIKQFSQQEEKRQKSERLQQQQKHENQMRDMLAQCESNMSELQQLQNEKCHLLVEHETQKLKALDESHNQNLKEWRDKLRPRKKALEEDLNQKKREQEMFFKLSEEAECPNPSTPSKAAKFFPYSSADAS
T26 sequence (O75582 1-387 limits assumed): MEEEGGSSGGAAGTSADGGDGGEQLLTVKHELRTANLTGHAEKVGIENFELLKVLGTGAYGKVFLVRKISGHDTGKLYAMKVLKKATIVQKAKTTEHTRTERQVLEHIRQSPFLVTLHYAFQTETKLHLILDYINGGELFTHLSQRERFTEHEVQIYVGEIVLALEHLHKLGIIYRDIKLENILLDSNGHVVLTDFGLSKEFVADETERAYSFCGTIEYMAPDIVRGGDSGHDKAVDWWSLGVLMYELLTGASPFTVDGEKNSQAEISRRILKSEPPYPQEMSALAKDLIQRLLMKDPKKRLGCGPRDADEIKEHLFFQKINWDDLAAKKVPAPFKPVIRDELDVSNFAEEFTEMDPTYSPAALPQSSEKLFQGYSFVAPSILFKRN
T11 sequence (P10721 26-976): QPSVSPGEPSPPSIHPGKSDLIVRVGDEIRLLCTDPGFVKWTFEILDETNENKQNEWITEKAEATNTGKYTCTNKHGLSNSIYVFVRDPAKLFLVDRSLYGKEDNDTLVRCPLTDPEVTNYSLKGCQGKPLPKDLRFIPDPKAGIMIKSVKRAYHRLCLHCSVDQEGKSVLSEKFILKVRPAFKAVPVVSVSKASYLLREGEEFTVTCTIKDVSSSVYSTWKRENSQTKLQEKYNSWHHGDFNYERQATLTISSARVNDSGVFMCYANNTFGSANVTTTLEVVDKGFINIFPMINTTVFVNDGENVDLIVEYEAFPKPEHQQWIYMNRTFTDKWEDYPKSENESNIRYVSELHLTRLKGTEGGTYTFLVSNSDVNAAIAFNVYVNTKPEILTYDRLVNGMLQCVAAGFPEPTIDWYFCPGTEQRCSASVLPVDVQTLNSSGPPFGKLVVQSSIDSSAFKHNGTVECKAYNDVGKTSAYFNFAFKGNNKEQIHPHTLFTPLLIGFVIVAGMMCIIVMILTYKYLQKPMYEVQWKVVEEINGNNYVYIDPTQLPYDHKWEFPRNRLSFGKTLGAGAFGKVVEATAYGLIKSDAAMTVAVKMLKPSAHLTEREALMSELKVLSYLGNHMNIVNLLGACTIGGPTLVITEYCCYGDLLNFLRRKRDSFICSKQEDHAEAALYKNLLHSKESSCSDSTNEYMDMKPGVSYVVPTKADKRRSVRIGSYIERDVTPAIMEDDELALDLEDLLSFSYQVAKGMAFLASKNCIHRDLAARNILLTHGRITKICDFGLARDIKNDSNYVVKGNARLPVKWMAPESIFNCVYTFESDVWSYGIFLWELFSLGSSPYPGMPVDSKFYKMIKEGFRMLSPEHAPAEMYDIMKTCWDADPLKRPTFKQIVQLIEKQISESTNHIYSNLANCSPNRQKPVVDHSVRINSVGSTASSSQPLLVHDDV
T21 sequence (P57078 whole entry): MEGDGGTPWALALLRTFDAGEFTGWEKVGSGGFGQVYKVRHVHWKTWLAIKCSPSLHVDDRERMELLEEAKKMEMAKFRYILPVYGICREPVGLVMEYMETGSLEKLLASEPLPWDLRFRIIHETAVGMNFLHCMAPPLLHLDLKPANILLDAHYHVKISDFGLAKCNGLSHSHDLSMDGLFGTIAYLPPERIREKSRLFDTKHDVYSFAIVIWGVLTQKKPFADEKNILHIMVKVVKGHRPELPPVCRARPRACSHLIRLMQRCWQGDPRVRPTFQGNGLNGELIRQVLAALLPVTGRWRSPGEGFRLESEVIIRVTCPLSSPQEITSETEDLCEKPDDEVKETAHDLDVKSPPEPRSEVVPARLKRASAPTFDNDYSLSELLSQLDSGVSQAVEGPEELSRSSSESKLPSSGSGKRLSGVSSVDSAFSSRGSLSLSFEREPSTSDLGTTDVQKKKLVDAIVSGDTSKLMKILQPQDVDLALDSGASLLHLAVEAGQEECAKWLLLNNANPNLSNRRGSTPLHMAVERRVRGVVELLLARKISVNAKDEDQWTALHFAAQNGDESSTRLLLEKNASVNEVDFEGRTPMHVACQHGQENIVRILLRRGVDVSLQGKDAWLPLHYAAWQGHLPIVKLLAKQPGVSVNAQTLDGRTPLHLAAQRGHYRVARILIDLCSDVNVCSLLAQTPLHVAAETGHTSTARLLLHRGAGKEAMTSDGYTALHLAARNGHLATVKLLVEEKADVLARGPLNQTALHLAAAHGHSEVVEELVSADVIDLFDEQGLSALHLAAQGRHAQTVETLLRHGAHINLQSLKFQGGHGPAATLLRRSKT
T4 sequence (Q8TD19 whole entry): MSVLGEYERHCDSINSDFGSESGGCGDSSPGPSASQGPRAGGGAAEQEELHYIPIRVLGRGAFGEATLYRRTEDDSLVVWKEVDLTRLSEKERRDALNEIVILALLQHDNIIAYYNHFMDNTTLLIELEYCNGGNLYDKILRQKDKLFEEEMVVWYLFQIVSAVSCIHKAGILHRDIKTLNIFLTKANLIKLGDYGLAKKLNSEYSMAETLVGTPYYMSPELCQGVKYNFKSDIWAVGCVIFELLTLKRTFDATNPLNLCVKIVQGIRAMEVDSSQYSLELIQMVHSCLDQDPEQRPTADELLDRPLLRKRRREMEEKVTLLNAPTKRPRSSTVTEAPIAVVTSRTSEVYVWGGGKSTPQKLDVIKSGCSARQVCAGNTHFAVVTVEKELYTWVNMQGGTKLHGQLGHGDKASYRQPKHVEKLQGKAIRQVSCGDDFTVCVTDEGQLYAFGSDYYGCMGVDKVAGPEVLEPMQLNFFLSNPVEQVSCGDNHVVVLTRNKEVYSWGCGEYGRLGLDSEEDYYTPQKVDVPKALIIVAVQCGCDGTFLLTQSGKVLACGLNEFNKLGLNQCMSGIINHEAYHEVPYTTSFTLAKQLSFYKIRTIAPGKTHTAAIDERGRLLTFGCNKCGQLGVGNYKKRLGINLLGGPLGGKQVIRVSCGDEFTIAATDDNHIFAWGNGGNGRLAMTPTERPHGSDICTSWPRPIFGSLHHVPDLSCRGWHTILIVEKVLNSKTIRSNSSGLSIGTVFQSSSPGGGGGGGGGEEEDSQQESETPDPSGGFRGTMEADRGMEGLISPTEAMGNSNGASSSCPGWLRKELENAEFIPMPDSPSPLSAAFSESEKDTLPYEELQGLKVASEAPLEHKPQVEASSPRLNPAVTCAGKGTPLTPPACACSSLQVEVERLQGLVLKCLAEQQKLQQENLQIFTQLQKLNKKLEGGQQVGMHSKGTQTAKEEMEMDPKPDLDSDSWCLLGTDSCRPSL
T17 sequence (P10721 26-976 V559D/T670I): as the sequence (P10721 26-976) above, with V534D, T645I counted along it
T22 sequence (Q6P2M8 whole entry): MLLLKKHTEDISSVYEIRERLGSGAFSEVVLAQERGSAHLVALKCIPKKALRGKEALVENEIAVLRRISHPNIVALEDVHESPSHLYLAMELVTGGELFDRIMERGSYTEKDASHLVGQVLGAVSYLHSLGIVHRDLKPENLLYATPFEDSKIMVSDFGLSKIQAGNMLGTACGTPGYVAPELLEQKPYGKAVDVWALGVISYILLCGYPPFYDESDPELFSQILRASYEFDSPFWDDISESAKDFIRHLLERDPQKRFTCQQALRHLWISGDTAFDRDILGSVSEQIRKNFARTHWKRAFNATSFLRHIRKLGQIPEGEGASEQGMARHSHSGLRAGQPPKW

## Cc1cccc(-c2cnc3occ(-c4ccc(C(=O)O)c(C5CCCC5)c4)c3c2)c1 [SGC-CAMKK2-1 (YL-36)]
[1]
  remaining binding at 1 µM: 99%
[2]
  remaining binding at 1 µM: 100%
[3]
  remaining binding at 1 µM: 86%
[4]
  remaining binding at 1 µM: 100%
[5]
  remaining binding at 1 µM: 100%
[6]
  remaining binding at 1 µM: 100%
[7]
  remaining binding at 1 µM: 96%
[8]
  remaining binding at 1 µM: 100%
[9]
  remaining binding at 1 µM: 100%
[10]
  remaining binding at 1 µM: 91%
[11]
  remaining binding at 1 µM: 100%
[12]
  remaining binding at 1 µM: 86%
[13]
  remaining binding at 1 µM: 100%
[14]
  remaining binding at 1 µM: 100%
[15]
  remaining binding at 1 µM: 100%
[16]
  Percent Control: 88%
[17]
  remaining binding at 1 µM: 100%

## O=C(O)c1ccc(-c2coc3ncc(-c4ccccc4)cc23)cc1Cl [SGC-CAMKK2-1N (UNC-YL-83)]
[18]
  remaining binding at 1 µM: 100%
[19]
  remaining binding at 1 µM: 47%
[20]
  remaining binding at 1 µM: 68%
[21]
  remaining binding at 1 µM: 100%
[22]
  remaining binding at 1 µM: 70%
[23]
  remaining binding at 1 µM: 61%
[24]
  remaining binding at 1 µM: 85%
[25]
  remaining binding at 1 µM: 62%
[26]
  remaining binding at 1 µM: 79%
[27]
  remaining binding at 1 µM: 76%
[28]
  remaining binding at 1 µM: 100%
[29]
  remaining binding at 1 µM: 74%
[30]
  remaining binding at 1 µM: 100%
[31]
  remaining binding at 1 µM: 82%
[32]
  remaining binding at 1 µM: 81%
[33]
  remaining binding at 1 µM: 98%
